Experimental data: the supplement of paper PMC11208160

Test: recombinant UMI read abundance after kanamycin selection (control-corrected) (log10(CPM+1)); higher = more efficient recombination; extreme values may be limits of the assay; sequences stand for … in AGTGCAGAGAAAATCGGCCAGTTTTCTCTGCCTGCAGTCCGCATGCCGTGGGACCCCTTGGGTTCTAACCTGTTGCCTAGATTTATGCAGCGGACTGCCTTTCTCCCAAAGTGATAAACCGG…AGGTTGGTTTCACT; site = the 11-nt donor
Outline: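 In Escherichia coli, a pool of donor and donor-binding-loop pairs, each with a 12-nt UMI, was tested for the IS621 bridge recombinase. Plating was on IPTG (0.07 mM) plus kanamycin, or without selection, in two replicates. Recombinant UMIs were amplified by PCR across the donor–target junction and sequenced, and counts were reported as log10(CPM+1) after averaging and control-derived scaling.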
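Note: IS621 bridge recombinase in Escherichia coli cells against a fixed T5 target plasmid.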

In order of rising “recombinant UMI read abundance (log10)” value:
1. AGCCTAGCATGGACCGGTTTTCCCGGTAATCCGTATTTGTG (site AGCCTAGCTGA)  0
2. ACATTATCATGGACCGGTTTTCCCGGTAATCCGTATTTGCC (site ACAGTATCTTG)  0
3. CAAGCGGCATGGACCGGTTTTCCCGGTAATCCGTATTTGCT (site CAAGCTGCTAG)  0
4. CCGTTCACATGGACCGGTTTTCCCGGTAATCCGTATTTGCT (site CCGTTGACTAG)  0
5. CGGGAGTCATGGACCGGTTTTCCCGGTAATCCGTATTTGCC (site CGGGATTCTGG)  0
6. TTTGCGCCATGGACCGGTTTTCCCGGTAATCCGTATTTGCT (site TTTGCGGCTAG)  0
7. GAATGGCCATGGACCGGTTTTCCCGGTAATCCGTATTTGCA (site GAATGGCCTGG)  0
8. AGGAACACATGGACCGGTTTTCCCGGTAATCCGTATTTGCC (site AGGAAGACTTG)  0
9. CGATCATCATGGACCGGTTTTCCCGGTAATCCGTATTTGCT (site CGATCGTCTAT)  0
10. CGGAATCCATGGACCGGTTTTCCCGGTAATCCGTATTTGTT (site CGGAAGACTAA)  0
11. TAATGAGCATGGACCGGTTTTCCCGGTAATCCGTATTTGGG (site TAATGATCTCC)  0
12. GCGACACCATGGACCGGTTTTCCCGGTAATCCGTATTTGTC (site GCGACACCTGA)  0
13. CGCCGTACATGGACCGGTTTTCCCGGTAATCCGTATTTGCT (site CGCCGAACTAG)  0
14. TCTGGACCATGGACCGGTTTTCCCGGTAATCCGTATTTGAC (site TCTGGACCTGT)  0
15. CTTCTTTCATGGACCGGTTTTCCCGGTAATCCGTATTTGTA (site CTTCTCTCTTA)  0
16. ACACCACCATGGACCGGTTTTCCCGGTAATCCGTATTTGAT (site ACACCACCTAT)  0.00417
17. ACTAGTGCATGGACCGGTTTTCCCGGTAATCCGTATTTGTT (site ACTAGTGCTAC)  0.00478
18. CGGAATCCATGGACCGGTTTTCCCGGTAATCCGTATTTGTT (site CGGAACCCTAC)  0.00563
19. TTAGGTACATGGACCGGTTTTCCCGGTAATCCGTATTTGAC (site ATAGGTACTGT)  0.0067
20. CATCGTACATGGACCGGTTTTCCCGGTAATCCGTATTTGGT (site AGAGTGGCTTA)  0.00765
21. CCCCACACATGGACCGGTTTTCCCGGTAATCCGTATTTGAA (site CCCCACACTTA)  0.0109
22. CGTTAGACATGGACCGGTTTTCCCGGTAATCCGTATTTGGG (site CGTTAGACTCC)  0.0132
23. TCCACCGCATGGACCGGTTTTCCCGGTAATCCGTATTTGCG (site TACACCGCTCG)  0.0145
24. GGTACAACATGGACCGGTTTTCCCGGTAATCCGTATTTGTA (site GGTACAACTTA)  0.0152
25. GTAGTCGCATGGACCGGTTTTCCCGGTAATCCGTATTTGAG (site GTAGTCGCTCA)  0.017
26. CCCCACACATGGACCGGTTTTCCCGGTAATCCGTATTTGTA (site CCCCACGCTTA)  0.0198
27. TCCACGGCATGGACCGGTTTTCCCGGTAATCCGTATTTGCG (site TCCACGGCTCG)  0.0249
28. CCAGTCACATGGACCGGTTTTCCCGGTAATCCGTATTTGGG (site CTAGTCACTCC)  0.0251
29. TGTACCTCATGGACCGGTTTTCCCGGTAATCCGTATTTGGT (site TGTACCTCTAC)  0.0562
30. GGGGCACCATGGACCGGTTTTCCCGGTAATCCGTATTTGCG (site GGGGCACCTCG)  0.0566
31. CGAACTCCATGGACCGGTTTTCCCGGTAATCCGTATTTGGG (site CGAACTCCTCC)  0.143
32. CAGGGCCCATGGACCGGTTTTCCCGGTAATCCGTATTTGTG (site CAGGGCCCTCA)  0.282
33. ATAAGGCCATGGACCGGTTTTCCCGGTAATCCGTATTTGAA (site ATAAGGCCTTT)  0.404
34. GTAGCCGCATGGACCGGTTTTCCCGGTAATCCGTATTTGCG (site GTAGACGCTCG)  0.446
35. GGCACGCCATGGACCGGTTTTCCCGGTAATCCGTATTTGTA (site GGCACGCCTTA)  0.523
36. AAACGAACATGGACCGGTTTTCCCGGTAATCCGTATTTGTC (site ACACGAACTGA)  0.524
37. GCTGCGTCATGGACCGGTTTTCCCGGTAATCCGTATTTGGT (site GCTGCGTCTAC)  0.732
38. GGAGTGGCATGGACCGGTTTTCCCGGTAATCCGTATTTGTT (site GGAGTGGCTAT)  0.767
39. AGGCGCGCATGGACCGGTTTTCCCGGTAATCCGTATTTGGA (site AGGCGCGCTTC)  0.849
40. GCCCACACATGGACCGGTTTTCCCGGTAATCCGTATTTGTA (site TCCCACACTTA)  1.02
41. GACTCTTCATGGACCGGTTTTCCCGGTAATCCGTATTTGGC (site GACTCTTCTGC)  1.04
42. CAAATAACATGGACCGGTTTTCCCGGTAATCCGTATTTGCA (site CAAATAACTTG)  1.1
43. CTAGTAACATGGACCGGTTTTCCCGGTAATCCGTATTTGGA (site CTAATAACTTC)  1.33
44. TAAACCCCATGGACCGGTTTTCCCGGTAATCCGTATTTGTA (site TAAACCCCTTA)  1.33
45. ACAAGAACATGGACCGGTTTTCCCGGTAATCCGTATTTGAG (site ACGAGAACTCT)  1.41
46. CCCCGTACATGGACCGGTTTTCCCGGTAATCCGTATTTGAT (site CCCCGTACTAT)  1.45
47. TCATATTCATGGACCGGTTTTCCCGGTAATCCGTATTTGCA (site TCATAATCTTG)  1.5
48. CTGTTAGCATGGACCGGTTTTCCCGGTAATCCGTATTTGTG (site CTGTTAGCTCA)  2.07
49. ATAGCTACATGGACCGGTTTTCCCGGTAATCCGTATTTGCG (site ATAGCTACTCG)  2.1
50. GGATAGACATGGACCGGTTTTCCCGGTAATCCGTATTTGCG (site GGATAGACTTG)  2.13
51. CAGCTCACATGGACCGGTTTTCCCGGTAATCCGTATTTGAT (site CAGCTCACTAT)  2.31
52. ATGCGTTCATGGACCGGTTTTCCCGGTAATCCGTATTTGAC (site ATGCGTTCTGT)  2.37
53. CGATCATCATGGACCGGTTTTCCCGGTAATCCGTATTTGCT (site CGACCATCTAG)  2.55
54. ACAGTATCATGGACCGGTTTTCCCGGTAATCCGTATTTGCG (site ACAGTATCTTG)  2.57
55. AAAGGCTCATGGACCGGTTTTCCCGGTAATCCGTATTTGCG (site AAAGGCTCTCG)  2.61
56. AGTAGCTCATGGACCGGTTTTCCCGGTAATCCGTATTTGGC (site AGTAGCTCTGC)  2.79
57. ATACGAACATGGACCGGTTTTCCCGGTAATCCGTATTTGTC (site ATACGAACTGA)  2.83
